Source: publication PMC11982498 (Redox Biology, 2025)

Legend:
Aβ1-42 = molecular target: T1, Aβ1-42 (Homo sapiens, UniProt P05067); assay: Congo red binding assay; type: biochemical; settings: 20 μM compound, 72 h
T1 construct: Aβ1-42 was purchased from Gill Biochemicals Ltd (Shanghai, China); purchased Gill Biochemicals Ltd (Shanghai, China)
Protocol: A total of 30 μM Congo red (Aladdin, Shanghai, China) solution (20 mM potassium phosphate, 50 mM NaCl, pH 7.4) was prepared and filtered with a 0.45 μm filter. The Aβ1-42 solutions (30 μM) were co-incubated with B14 (20 μM), A22 (20 μM), or Curcumin (20 μM) at 37 °C protected from light for 72h. The Aβ1-42 solution was mixed with equal volume of Congo red solution, followed by incubation for 30 min. A spectral region from 400 nm to 650 nm was measured by using a UV–vis spectrophotometer (AoE, China).
A total of 30 μM Congo red solution (20 mM potassium phosphate, 50 mM NaCl, pH 7.4) was prepared and filtered with a 0.45 μm filter. The Aβ1-42 solutions (30 μM) were co-incubated with B14 (20 μM) and Curcumin (20 μM) at 37 °C protected from light for 72h. The Aβ1-42 solution was mixed with equal volume of Congo red solution and incubated for 30 min. A spectral region from 400 nm to 650 nm was analyzed by using a UV-vis spectrophotometer (AoE, China).

APP/PS1 transgenic mice = assay: Morris water maze (MWM); type: in vivo; settings: B14 10, 20, 40 mg/kg i.p. every other day; vs model group
Description: Five months old male APP/PS1 mice, weighing 25–33 g, were purchased from Guangdong Medical Laboratory Animal Center and housed in the Laboratory Animal Center of Sun Yat-sen University (Guangzhou, China) for experimentation. All procedures were approved by the Animal Care and Use Committee of Sun Yat-sen University and complied with legal requirements and national guidelines for the care and maintenance of laboratory animals (Approval No. SYSU-IACUC-2024-002032). The mice were housed in a specific pathogen-free environment with a controlled temperature of 22 ± 1 °C and a 12-h dark/light cycle. The mice were fed with a standard diet, and 30 mice were randomly divided into 6 groups (N = 5). Compound B14 was dissolved in saline and administered at doses of 10, 20, or 40 mg/kg. […]
The spatial memory and learning abilities of the mice were assessed using Morris water maze (MWM), novel object recognition (NOR) and nesting experiments (NBT). The anxiety and depressive behaviors were evaluated through the open field test (OFT) and elevated plus maze (EPM). […]
Morris water maze (MWM) system consisted of a heated circular pool, a target platform, and a video capture with analysis system. […] The time taken to find the platform (latency) was recorded. […] The platform was removed, and the mice were monitored for 60 seconds. […]

BCL-2 IM = assay: FRET fluorescence titration of double-labeled DNA; type: binding; settings: pH 6.2
Protocol: Figure S3. Biophysical experiments were performed for binding of acridine derivative to BCL-2 promoter i-motif and other DNA structures. (A-C) SPR experiments were performed for binding of B14 to ILPR promoter i-motif, (G2C4)6 promoter i-motif, and HRAS promoter i-motif. Bio-ILPR, bio-(G2C4)6, and bio-HRAS were annealed in MES buffer at pH 5.5. (D) FRET experiment was performed for pH-dependent fluorescence change of BCL-2 promoter i-motif dual labeled with FAM and TAMRA at the 5´-end and 3´-end, respectively. […] (E) Dose-dependent fluorescence spectra changes at 516 nm for various dual labeled C-rich oligomers (representing i-motifs from promoters of BCL-2, C-KIT, C-MYC, C-JUN and TEL-C DNA) were measured with addition of increasing amount of B14. […] All the experiments were repeated for three times.
The oligonucleotides with fluorescent 5´-FAM and 3′-TAMRA labeling at concentration of 100 nM in 1 × BPES buffer were annealed by heating at 95 °C for 5 min followed by cooling to room temperature. The spectra from 500 nm to 700 nm of 100 μL mixture with addition of different equivalent compounds at 25 °C were recorded based on fluorescence emission (λex = 480 nm).

[1] = system: BAX gene transcription in brain of APP/PS1 mice; assay: Real-time RT-PCR of mice brain, BAX; type: in vivo
Protocol: Five months old male APP/PS1 mice, weighing 25–33 g, were purchased from Guangdong Medical Laboratory Animal Center and housed in the Laboratory Animal Center of Sun Yat-sen University (Guangzhou, China) for experimentation. […] The mice were housed in a specific pathogen-free environment with a controlled temperature of 22 ± 1 °C and a 12-h dark/light cycle. The mice were fed with a standard diet, and 30 mice were randomly divided into 6 groups (N = 5). […] Behavioral experiments were then conducted, and tissue specimens were collected for biochemical analysis.
^a -∆∆Ct = -[(Ct value of genes in treated sample - Ct value of genes in control) - (Ct value of β-actin in treated sample - Ct value of β-actin in control)]. ^b F: The relative expression fold.
Following sample homogenization, chloroform was added, and the solution was allowed to have phase separation into an upper aqueous layer (containing RNA), an interphase, and a lower organic layer (containing DNA and proteins). RNA was precipitated from the aqueous phase using isopropanol, while DNA was precipitated from the aqueous-organic interphase using ethanol.
Quantitative real-time polymerase chain reaction (qRT-PCR) was performed using the 2× RealStar SYBR Mixture (GenStar, Cat# A301-10, Guangzhou, China) on a LightCycler 480 II real-time PCR system (Roche, USA). Data were analyzed using the 2^−ΔΔCt method. Actin served as the internal control, and relative mRNA levels were normalized accordingly.

T1 sequence (P05067 672-713 limits assumed): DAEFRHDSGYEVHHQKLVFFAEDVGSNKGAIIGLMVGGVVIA

## O=C(CCN1CCOCC1)Nc1ccc2c(c1)c(=O)c1cc(NC(=O)CCN3CCOCC3)ccc1n2-c1ccc2occc2c1 [Compound B14]
Aβ1-42
  absorbance of Congo red in the Aβ1-42 sample: significantly reduced
APP/PS1 transgenic mice
  escape latency (MWM): significantly short
  number for the mice to cross the platform (MWM): significantly increased
BCL-2 IM
  fluorescence response of double-labeled DNA: dose-dependent effect on the fluorescence of BCL-2 IM
[1]; 10 mg/kg
  -∆∆Ct, BAX: -0.16
  F = 2^-∆∆Ct (relative expression fold), BAX: 1.11
[1]; 20 mg/kg
  -∆∆Ct, BAX: 0.08
  F = 2^-∆∆Ct (relative expression fold), BAX: 0.94
[1]; 40 mg/kg
  -∆∆Ct, BAX: 0.21
  F = 2^-∆∆Ct (relative expression fold), BAX: 0.86
